Results reported in patent US20240016777A1, “COMPOUNDS AND METHODS FOR TREATING VIRAL INFECTIONS” (priority 2020, published 2024).

Target: SARS-CoV-2 M^pro (Severe acute respiratory syndrome coronavirus 2 (2019-nCoV) (SARS-CoV-2), UniProt P0DTD1)
Assay: biochemical
Settings: not given

SMILES | Mpro inhibitory activity (comparison in words)
COc1ccc(-c2cc(=O)c3c(O)cc(O)cc3o2)cc1-c1c(O)cc(O)c2c(=O)cc(-c3ccc(O)cc3)oc12 [bilobetin] | comparable to amentoflavone

Same assay, conditions: compound at 17 μM, duplicates, 20 min pre-incubation

SMILES | Activity (% enzyme activity by fluorescence relative to initial enzyme activity)
C[C@@H]1O[C@@H](OC[C@H]2O[C@@H](Oc3c(-c4ccc(O)cc4)oc4cc(O)cc(O)c4c3=O)[C@H](O)[C@@H](O)[C@H]2O)[C@H](O)[C@H](O)[C@H]1O [Biorobin] | +++ (<10% enzyme activity as indicated by fluorescence measurements)
COc1cc2c(c3c1CC[C@@H](c1ccccc1)O3)[C@H]1c3c(cc(O)c(C)c3OC)O[C@](c3ccccc3)(O2)[C@@H]1O [Dracoflavan B1] | ++ (enzyme activity as indicated by fluorescence measurements ≥10% and <80%)

Same assay, conditions: compound at 17 μM, duplicates, 20 min pre-incubation; read-out: Activity (% enzyme activity by fluorescence relative to initial enzyme activity)

SMILES | remaining activity at 17 µM [%]
CC(C)=CCc1cc(-c2coc3cc(O)cc(O)c3c2=O)cc(O)c1O [glycyrrhisoflavone] | > 80
O=c1c(O)c(-c2ccc(O)cc2O)oc2cc(O)cc(O)c12 [morin] | > 80
O=c1c(-c2ccc(O)cc2)coc2cc(O)cc(O)c12 [Genistein] | > 80
COc1cc(O)c(CC=C(C)C)c2c1C(=O)C[C@@H](c1ccc(O)cc1)O2 [Isoxanthohumol] | > 80
C=C(C)C(CC=C(C)C)Cc1c(O)cc(O)c2c(=O)c(O)c(-c3ccc(O)cc3)oc12 (stereo not shown) [8-Lavandulylkaempferol] | 10 to 80
O=c1c(O)c(-c2ccc(O)cc2)oc2cc(O)cc(O)c12 [Kaempferol] | > 80

Same assay, conditions: compounds evaluated at 0.015-300 μM; read-out: IC50

SMILES | IC50 [µM]
C[C@@H]1O[C@@H](OC[C@H]2O[C@@H](Oc3c(-c4ccc(O)cc4)oc4cc(O)cc(O)c4c3=O)[C@H](O)[C@@H](O)[C@H]2O)[C@H](O)[C@H](O)[C@H]1O [Biorobin] | 7
COc1cc2c(c3c1CC[C@@H](c1ccccc1)O3)[C@H]1c3c(cc(O)c(C)c3OC)O[C@](c3ccccc3)(O2)[C@@H]1O [Dracoflavan B1] | 17

Same assay, conditions: read-out: Activity (% enzyme activity by fluorescence relative to initial enzyme activity), compound at 17 μM, duplicates, 20 min pre-incubation

SMILES | remaining activity at 17 µM [%]
CC(C)=CCc1c(O)cc2c(c1O)C(=O)C[C@@H](c1ccc(O)cc1)O2 [6-Prenylnaringenin] | > 80
CC(C)=CCc1c2c(c(O)c3c(=O)c4c(oc13)-c1cc(O)c(O)cc1OC4C=C(C)C)C=CC(C)(C)O2 (stereo not shown) [Cycloheterophyllin] | > 80
CC(C)=CC1Oc2cc(O)ccc2-c2oc3cc(O)cc(O)c3c(=O)c21 (stereo not shown) [Cyclocommunol] | > 80
COc1c(-c2ccc(O)c(O)c2)oc2c(C/C=C(\C)CCC=C(C)C)c(O)cc(O)c2c1=O [5,7,3′,4′-Tetrahydroxy-3-methoxy-8-geranylflavone] | > 80
CC(C)=CCC/C(C)=C/Cc1c(O)cc2c(c1O)C(=O)C[C@@H](c1ccc(O)cc1)O2 [6-Geranylnaringenin] | > 80
COc1ccc(-c2oc3c(CC=C(C)C)c(O)cc(O)c3c(=O)c2O[C@@H]2O[C@@H](C)[C@H](O)[C@@H](OC(C)=O)[C@H]2O[C@@H]2O[C@H](CO)[C@@H](O)[C@H](O)[C@H]2O)cc1 [Sagittatoside C] | > 80
O=C1c2c(O)cc(O)cc2O[C@H](c2ccc(O)cc2O)[C@H]1O [Dihydromorin] | > 80
CC(C)=CCc1c(O)cc(O)c2c1O[C@H](c1ccccc1)CC2=O [Glabranin] | > 80
CC(C)=CCc1c([C@H]2CCc3ccc(O)cc3O2)ccc(O)c1O [Kazinol U] | > 80
CC(C)=CCc1c(O)c(CC=C(C)C)c2occc(=O)c2c1O [Eriosemation] | > 80
CC(C)=CCc1c(O[C@@H]2O[C@H](CO)[C@@H](O)[C@H](O)[C@H]2O)cc(O)c2c(=O)c(O[C@@H]3O[C@@H](C)[C@H](O)[C@@H](O)[C@H]3O[C@@H]3O[C@@H](C)[C@H](O)[C@@H](O)[C@H]3O)c(-c3ccc(O)cc3)oc12 [Baohuoside V] | 10 to 80
COc1ccc(-c2coc3c(CC=C(C)C)c(O)cc(O)c3c2=O)cc1 [Gancaonin M] | > 80
CC(C)=CCC/C(C)=C/Cc1cc(-c2cc(=O)c3c(O)cc(O)cc3o2)c(O)cc1O [5′-Geranyl-5,7,2′,4′-tetrahydroxyflavone] | > 80
COc1ccc(-c2oc3c(CC=C(C)C)c(O[C@@H]4O[C@H](CO)[C@@H](O)[C@H](O)[C@H]4O)cc(O)c3c(=O)c2O[C@@H]2O[C@@H](C)[C@H](O)[C@@H](O)[C@H]2O[C@@H]2O[C@H](CO)[C@@H](O)[C@H](O)[C@H]2O)cc1 [Epimedin A] | 10 to 80
CC(C)=CCc1c(O)cc(O)c2c1O[C@H](c1ccc3c(c1)C=CC(C)(C)O3)CC2=O [Euchrenone A10] | > 80
COc1cc(O)c2c(=O)c(O)c(-c3ccc(O)cc3)oc2c1CC=C(C)C [Isoanhydroicaritin] | > 80
CC(C)=CCC/C(C)=C/Cc1cc(-c2coc3cc(O)ccc3c2=O)ccc1O [Corylifol A] | > 80
CC(C)=CCc1cc([C@@H]2CCc3ccc(O)cc3O2)c(CC=C(C)C)c(O)c1O [Kazinol A] | > 80
CC(C)=CCCC1(C)CCc2c(cc(O)c3c2OC(c2ccc(O)cc2O)CC3=O)O1 (stereo not shown) [Sanggenol L] | > 80
COc1ccc(-c2oc3c(CC=C(C)C)c(O[C@@H]4O[C@H](CO)[C@@H](O)[C@H](O)[C@H]4O)cc(O)c3c(=O)c2O[C@@H]2O[C@@H](C)[C@H](O)[C@@H](O)[C@H]2O[C@@H]2O[C@@H](C)[C@H](O)[C@@H](O)[C@H]2O)cc1 [Epimedin C] | 10 to 80
CC(C)=CCc1c(O)cc(O)c2c1O[C@H](c1ccc(O)cc1)CC2=O [8-Prenylnaringenin] | 10 to 80
CC(C)=CCc1c(O)ccc2c1O[C@H](c1ccc(O)cc1)CC2=O [Isobavachin] | > 80
CC(C)=CCc1cc(-c2coc3c(CC=C(C)C)c(O)c(CC=C(C)C)c(O)c3c2=O)ccc1O [Euchrenone B1] | > 80
COc1ccc2c(c1CC=C(C)C)O[C@H](c1ccc(O)cc1O)CC2 (stereo in doubt) [2′,4′-Dihydroxy-7-methoxy-8-prenylflavan] | > 80
C=C(C)[C@H](CC=C(C)C)Cc1c(O)cc(OC)c2c1O[C@H](c1ccc(O)cc1O)[C@H](O)C2=O [Kushenol N] | > 80

SMILES | remaining activity at 17 µM [%]
CC(C)=CCc1c(O)ccc([C@H]2COc3cc(O)cc(O)c3C2=O)c1O [Dihydrolicoisoflavone] | > 80
CC(C)=CCc1c(O)cc2oc(-c3ccc(O)cc3)cc(=O)c2c1O [4′,5,7-Trihydroxy-6-prenylflavone] | > 80
CC(C)=CC[C@]12Oc3cc(O)c([C@@H]4C=C(C)C[C@H](c5ccc(O)cc5O)[C@H]4C(=O)c4cc(O)cc(O)c4)c(O)c3C(=O)[C@@]1(O)Oc1cc(O)ccc12 [Sanggenone D] | < 10
CC(C)=CCc1cc([C@@H]2CC(=O)c3c(O)cc(O)c(CC=C(C)C)c3O2)ccc1O [Euchrestaflavanone A] | > 80
C=C(C)[C@H](CCC(C)(C)O)Cc1c(O)cc(OC)c2c1O[C@H](c1ccc(O)cc1O)CC2=O [Kurarinol] | > 80
COc1ccc(-c2oc3c(CC=C(C)C)c(O[C@@H]4O[C@H](CO)[C@@H](O)[C@H](O)[C@H]4O)cc(O)c3c(=O)c2O[C@@H]2O[C@@H](C)[C@H](O)[C@@H](O)[C@H]2O[C@@H]2OC[C@@H](O)[C@H](O)[C@H]2O)cc1 [Epimedin B] | 10 to 80
C=C(C)[C@H](CC=C(C)C)Cc1c(O)cc(O)c2c1O[C@H](c1ccc(O)cc1O)CC2=O [Kushenol F] | > 80
COc1c2c(cc(O)c1CC=C(C)C)OCC(c1ccc(O)cc1O)=C2 [Dehydroglyasperin C] | > 80
CC(C)=CCc1cc([C@@H]2CC(=O)c3ccc(O)c(CC=C(C)C)c3O2)cc(CC=C(C)C)c1O [(−)-Sophoranone] | 10 to 80
COc1c(-c2cc(O)c(O)c(CC=C(C)C)c2)oc2cc(O)cc(O)c2c1=O [Uralenol-3-methylether] | > 80
CC(C)=CCc1c([C@@H]2CCc3ccc(O)cc3O2)cc2c(c1O)OC(C)(C)C=C2 [Kazinol B] | > 80
CC(C)=CCc1cc(C2CC(=O)c3c(O)cc(O)cc3O2)c(CC=C(C)C)c(O)c1O (racemic) [(+/−)-Sigmoidin A] | 10 to 80
COc1cc2c(c(OC)c1CC=C(C)C)C[C@H](c1ccc(O)c(CC=C(C)C)c1O)CO2 [Licorisoflavan A] | 10 to 80
COc1ccc(-c2oc3c(CC=C(C)C)c(O[C@@H]4O[C@H](CO)[C@@H](O)[C@H](O)[C@H]4O)cc(O)c3c(=O)c2O[C@@H]2O[C@@H](C)[C@H](O)[C@@H](O)[C@H]2O)cc1 [Icariin] | 10 to 80
CC(C)=CCc1c(-c2ccc(O)cc2O)oc2cc3c(c(O)c2c1=O)C=CC(C)(C)O3 [Cudraflavone B] | 10 to 80
C=C(C)C(O)Cc1c(O)c(CC=C(C)C)c(O)c2c(=O)c(-c3ccc(O)c(O)c3)coc12 (stereo not shown) [millewanin H] | 10 to 80
CC(C)=CCc1c(O)ccc2c(=O)cc(-c3ccc(O)c(O)c3)oc12 [Corylifol C] | > 80
CC(C)=CCc1c(O)c(CC=C(C)C)c2oc3c(c(=O)c2c1O)C(C=C(C)C)Oc1cc(O)c(O)cc1-3 (stereo not shown) [Artoheterophyllin B] | > 80
CC(C)=CCc1c(O)cc2oc(-c3ccc(O)cc3O)cc(=O)c2c1O [Artocarpesin] | > 80
CC(C)=CCc1c(O)cc(O)c2c(=O)c(O[C@@H]3O[C@@H](C)[C@H](O)[C@@H](O)[C@H]3O)c(-c3ccc(O)cc3)oc12 [Baohuoside II] | > 80
COc1ccc(-c2coc3cc(O)c(CC=C(C)C)c(O)c3c2=O)c(O)c1 [Gancaonin N] | > 80
CC(C)=CCCC1(C)C=Cc2c(ccc([C@@H]3CC(=O)c4c(O)cc(O)cc4O3)c2O)O1 (stereo partly shown) [Sanggenon N] | > 80
COc1c(O)cc2oc(-c3cc(CC=C(C)C)c(O)c(CCC(C)CO)c3)c(OC)c(=O)c2c1O (stereo not shown) [5′-Prenylaliarin] | > 80
CC(C)=CCCC1(C)C=Cc2c(cc3c(c2O)C(=O)C[C@@H](c2ccc(O)cc2O)O3)O1 (stereo partly shown) [Kuwanol C] | 10 to 80
C=C(C)[C@H](CC=C(C)C)Cc1c(O)c(CC=C(C)C)c(O)c2c1O[C@H](c1ccc(O)cc1O)CC2=O [Kushenol B] | > 80
